In paper PMC9916778 (International Journal of Molecular Sciences, 2023):
Where two headings read alike, the source gives them in different places.

How the values were obtained:
[1] = test system: human cancer cell lines (A2780, A2780R, PC-3, 22Rv1, and THP-1); assay: In vitro cytotoxicity, summary statements over the panel of cell lines; assay type: cell-based; details: IC50 for normal cell line/IC50 for cancerous cell line
Procedure: (§1) The testing was performed on the ovarian carcinoma (A2780), Cisplatin-resistant ovarian carcinoma (A2780R), prostate adenocarcinoma (PC-3), prostate carcinoma (22Rv1), and leukemia monocytic (THP-1) and intestinal colon adenocarcinoma (LS180) human cell lines that were obtained from the ATCC collection of cell lines and cultivated according to the producer’s instructions. The reference normal cell line of human fetal fibroblasts (MRC-5) was obtained from the same commercial source and maintained according to the producer’s instructions. The half-maximal inhibitory concentrations (IC50) were calculated from dose–response curves by means of the GraphPad Prism 6 software (GraphPad Software, San Diego, CA, USA).

[2] = test system: MRC5 human fetal fibroblasts; assay: In vitro cytotoxicity (MTT assay), normal MRC-5 fibroblasts; assay type: cell-based; details: ± standard deviation, triplicate, read-out: IC50, MRC5 (healthy cells)
Procedure: as §1

caspases 3/7 = assay: Caspase 3/7 activation (flow cytometry); assay type: cell-based, human; details: A2780, half-cytotoxic concentration, 24 h
Procedure: (§2) The induction of cell death by complex (1) was studied by two methods in the A2780 cell line. Firstly, the induction of apoptosis was tested using an Annexin V-FITC/PI commercial kit (V13242, Thermo Fisher Scientific, USA). Second, caspase 3/7 activation was monitored using the CellEvent™ Caspase-3/7 Green Flow Cytometry Assay Kit (C10427, Thermo Fisher Scientific, USA). Both assays were performed according to the manufacturers’ protocols with one modification in the caspase induction assay: the use of CellEvent^TM Caspase-3/7 Green Detection Reagent was only for the detection of caspase 3/7 activation. The general procedure was as follows: 5 × 10^4 cells per well were seeded in a 24-well cell culture plate, and after 24 h, the cells were treated with 4 µM solution of complex (1) and cultivated for next 24 h. […] The trypsin was blocked by adding the cell culture medium to a final volume of 500 µL, and the resulting cell suspensions were divided into two separate 250 µL aliquots. The first set of aliquots was used to evaluate the Annexin V-FITC/PI assay, whilst the second one was used for the caspase 3/7 activation assay. Both assays were performed using a BD FACSVerse flow cytometer (Becton Dickinson, USA) in three independent experiments, each performed in duplicate.

A2780 cells = assay: Induction of apoptosis, Annexin V-FITC/PI staining; assay type: cell-based, human; details: A2780, half-cytotoxic concentration, 24 h
Procedure: as §2

[3] = test system: A2780 ovarian carcinoma cells; assay: In vitro cytotoxicity (MTT assay), A2780; assay type: cell-based, human
Procedure: The reference normal cell line of human fetal fibroblasts (MRC-5) was obtained from the same commercial source and maintained according to the producer’s instructions. The half-maximal inhibitory concentrations (IC50) were calculated from dose–response curves by means of the GraphPad Prism 6 software (GraphPad Software, San Diego, CA, USA).

PPARγ = assay: Immunocytochemical analysis of PPARγ expression and localisation; assay type: cell-based, human; details: 100 nM, 1 h pre-treatment, LPS-stimulated THP1-Blue NF-κB macrophages
Procedure: THP1-Blue™ NF-κB cells were seeded onto a µ-Slide 8 Well (Ibidi; Gräfelfing, Germany) and differentiated into macrophages by […] (PMA) at the final concentration of 50 ng/mL, as was described previously.
Differentiated macrophages were washed by PBS and covered by fresh serum-free medium for 2 h. […] One hour later, the cells were challenged by LPS for 24 h. Then, the cells were washed by PBS and fixed by 4% paraformaldehyde dissolved in PBS for 10 min. Cell permeabilization and blocking of free binding sites were performed by 0.1% (v/v) Triton X100 and 5% (w/v) bovine serum albumin (BSA) dissolved in PBS for 1 h at room temperature. After that, cells were washed by PBS with 0.1% (v/v) Tween 20 and covered by fresh PBS with 5% BSA and 0.1% Tween 20 containing Alexa Fluor® 546-labelled anti-PPARγ antibody diluted 1:100 (catalogue number sc-7273; Santa Cruz Biotechnology; Dallas, TX, USA) for a further 24 h. Then, cells were washed by PBS with 0.1% Tween 20 and incubated with Hoechst stain diluted 1:2000 for 10 min. The remaining stain was washed out by PBS and covered by fresh PBS for further microscope analysis. The confocal microscope Leica TCS SP8 MP (Leica Microsystems, Mannheim, Germany) was used for obtaining the images for the immunocytochemical analysis of PPARγ expression and localization.

[4] = MTT, 24 h incubation, ± standard deviation, triplicate, read-out: IC50, A2780

Compound	selectivity index (SI) [1]	IC50 [2]	Activation of caspases 3/7 (caspases 3/7)	Cells in late stage apoptosis (Annexin V+/PI+) (A2780 cells)	IC50 ([3]; 24 h incubation, read-out: Time-dependent in vitro cytotoxicity (IC50), A2780, 24 h)	IC50 ([3]; 72 h incubation, read-out: Time-dependent in vitro cytotoxicity (IC50), A2780, 72 h)	IC50 [3, 4]	IC50 ([3]; read-out: Time-dependent in vitro cytotoxicity (IC50), A2780, 48 h, 48 h incubation)	Effect on the amount of PPARγ (PPARγ)	Cells with active executioner caspases 3/7 (caspases 3/7)	Cells in early stage apoptosis (Annexin V+/PI-) (A2780 cells)	IC50 ([3]; read-out: IC50, A2780, after 48 h and 72 h incubation, 48 h and 72 h incubation, insignificant changes)
CC[PH](CC)(CC)[Au][S][C@@H]1O[C@H](COC(C)=O)[C@@H](OC(C)=O)[C@H](OC(C)=O)[C@H]1OC(C)=O [Auranofin, [3,4,5-triacetyloxy-6-(acetyloxymethyl)-oxane-2-thiolate-(triethylphosphine)gold(I)]]	around 1	3.78 ± 0.01 µM	the most effective gold(I) complex	around 80%	3.4 ± 0.9 µM	2 ± 0.1 µM	3.4 ± 0.9 µM	2.1 ± 0.4 µM				
[Cl][Au].c1ccc(P(c2ccccc2)c2ccccc2)cc1 [[Au(PPh3)Cl]]		17 ± 0.5 µM		around 30%			3.5 ± 0.5 µM		did not show this effect	around 50%	around 10%	~3 µM
